Values after ≈ are worked out from the molar mass of the structure shown.
Legend:
N. gonorrhoeae WHO L = test: Liquid broth MIC in Fastidious broth; settings: Neisseria gonorrhoeae, read-out: Minimum Inhibitory Concentration (MIC), N. gonorrhoeae WHO L
N. gonorrhoeae FA1090 = test: Liquid broth MIC in Fastidious broth; settings: Neisseria gonorrhoeae, FA1090, read-out: Minimum Inhibitory Concentration (MIC), N. gonorrhoeae FA 1090
A. baumannii ATCC 19606 = test: microbe, parasite or virus in culture; type: cell-based; settings: Acinetobacter baumannii, ATCC19606, read-out: MIC, A. baumannii ATCC 19606
N. gonorrhoeae CDC-0197 = test: Liquid broth MIC in Fastidious broth; settings: Neisseria gonorrhoeae, CDC0197, read-out: Minimum Inhibitory Concentration (MIC), N. gonorrhoeae CDC-0197
N. gonorrhoeae WHO M = test: Liquid broth MIC in Fastidious broth; settings: Neisseria gonorrhoeae, read-out: Minimum Inhibitory Concentration (MIC), N. gonorrhoeae WHO M
[1] = test system: N. gonorrhoeae ATCC 49226; test: Liquid broth MIC in Fastidious broth; settings: Neisseria gonorrhoeae, ATCC49226, read-out: Minimum Inhibitory Concentration (MIC), N. gonorrhoeae ATCC 49226
P. aeruginosa ATCC 35151 = test: microbe, parasite or virus in culture; type: cell-based; settings: Pseudomonas aeruginosa, ATCC35151, read-out: MIC P. aeruginosa ATCC 35151
K. pneumoniae 848844 = test: microbe, parasite or virus in culture; type: cell-based; settings: Klebsiella pneumoniae, 848844, read-out: MIC K. pneumoniae 848844
K. pneumoniae SI-117 = test: microbe, parasite or virus in culture; type: cell-based; settings: Klebsiella pneumoniae, SI117, read-out: MIC K. pneumoniae SI-117
N. gonorrhoeae WHO X = test: Liquid broth MIC in Fastidious broth; settings: Neisseria gonorrhoeae, read-out: Minimum Inhibitory Concentration (MIC), N. gonorrhoeae WHO X
E. coli D22 = test: microbe, parasite or virus in culture; type: cell-based; settings: Escherichia coli, D22, read-out: MIC E. coli D22
E. coli AG100A = test: Broth microdilution MIC in CAMHB; type: cell-based; settings: Escherichia coli, read-out: MIC E. coli AG100A
[2] = test system: P. aeruginosa (ΔmexAB-oprM); test: Broth microdilution MIC in CAMHB; type: cell-based; settings: Pseudomonas aeruginosa; read-out: MIC P. aeruginosa ΔmexAB-oprM
[3] = molecular target: T1, PBP3 from Escherichia coli (K-12) (Escherichia coli, UniProt P0AD68); test: Bocillin-FL fluorescence polarization competition binding, E. coli PBP3
T1 construct: made in house
Outline: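 Purified PBPs pre-incubated with inhibitor (E. coli PBP3 1.5 μM, 30 min; P. aeruginosa PBP3 0.75 μM, A. baumannii PBP1a 1 μM and PBP3 0.2 μM, 15 min), then Bocillin-FL 0.1 μM (0.05 μM for PBP1a) added; FP read up to 60 min. EC50 = concentration halving bound Bocillin-FL.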

E. coli AG100 = test: microbe, parasite or virus in culture; type: cell-based; settings: Escherichia coli, AG100, read-out: MIC E. coli AG100
N. gonorrhoeae WHO G = test: Liquid broth MIC in Fastidious broth; settings: Neisseria gonorrhoeae, read-out: Minimum Inhibitory Concentration (MIC), N. gonorrhoeae WHO G

T1 sequence (P0AD68 1-577): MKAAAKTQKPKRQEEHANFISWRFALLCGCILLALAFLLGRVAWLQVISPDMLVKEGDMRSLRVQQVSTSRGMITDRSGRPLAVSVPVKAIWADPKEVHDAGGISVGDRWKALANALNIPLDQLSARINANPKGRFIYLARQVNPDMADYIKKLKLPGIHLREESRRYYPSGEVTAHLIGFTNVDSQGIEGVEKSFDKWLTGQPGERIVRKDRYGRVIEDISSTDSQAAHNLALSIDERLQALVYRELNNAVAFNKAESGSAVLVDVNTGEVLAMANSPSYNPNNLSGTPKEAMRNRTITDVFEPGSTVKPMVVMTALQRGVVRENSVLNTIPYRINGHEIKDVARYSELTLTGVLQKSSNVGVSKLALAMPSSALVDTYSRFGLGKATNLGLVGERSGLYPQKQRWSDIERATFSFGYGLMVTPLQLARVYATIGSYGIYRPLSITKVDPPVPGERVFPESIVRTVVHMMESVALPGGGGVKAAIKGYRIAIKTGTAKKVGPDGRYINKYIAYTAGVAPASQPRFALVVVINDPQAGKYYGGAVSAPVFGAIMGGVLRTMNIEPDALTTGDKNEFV

Structure (SMILES)	MIC (N. gonorrhoeae WHO L) [µg/mL]	MIC (N. gonorrhoeae FA1090) [µg/mL]	MIC (A. baumannii ATCC 19606) [µg/mL]	MIC (N. gonorrhoeae CDC-0197) [µg/mL]	MIC (N. gonorrhoeae WHO M) [µg/mL]	MIC [1] [µg/mL]	MIC (P. aeruginosa ATCC 35151) [µg/mL]	MIC (K. pneumoniae 848844) [µg/mL]	MIC (K. pneumoniae SI-117) [µg/mL]	MIC (N. gonorrhoeae WHO X) [µg/mL]	MIC (E. coli D22) [µg/mL]	MIC (E. coli AG100A) [µg/mL]	MIC [2] [µg/mL]	EC50 [3] [µM]	MIC (E. coli AG100) [µg/mL]	MIC (N. gonorrhoeae WHO G) [µg/mL]
O=C(O)c1cccc2c1OB(O)[C@@H](NC(=O)[C@H](NC(=O)N1CCNC1=O)c1ccc(P(=O)(O)O)cc1)C2 [Example 40, (R)-2-hydroxy-3-((R)-2-(2-oxoimidazolidine-1-carboxamido)-2-(4-phosphonophenyl)acetamido)-3,4-dihydro-2H-benzo[e][1,2]oxaborinine-8-carboxylic acid]	1 to 2 (≈ 1.88 to 3.76 µM)	< 1	32 to 64 (≈ 60.1 to 120 µM)	< 1	< 1	< 1	< 1	> 128	> 128	1 to 2 (≈ 1.88 to 3.76 µM)	2 to 4 (≈ 3.76 to 7.52 µM)	8 to 16 (≈ 15 to 30.1 µM)	8 to 16 (≈ 15 to 30.1 µM)	< 10	32 to 64 (≈ 60.1 to 120 µM)	< 1
CN1CCN(C(=O)NC(C(=O)N[C@H]2Cc3cccc(C(=O)O)c3OB2O)c2ccc(P(=O)(O)O)cc2)C1=O (stereo partly drawn) [Example 41, (3R)-2-hydroxy-3-(2-(3-methyl-2-oxoimidazolidine-1-carboxamido)-2-(4-phosphonophenyl)acetamido)-3,4-dihydro-2H-benzo[e][1,2]oxaborinine-8-carboxylic acid]	1 to 2 (≈ 1.83 to 3.66 µM)	< 1	32 to 64 (≈ 58.6 to 117 µM)	< 1	< 1	< 1	< 1	> 128	> 128	1 to 2 (≈ 1.83 to 3.66 µM)	2 to 4 (≈ 3.66 to 7.32 µM)	8 to 16 (≈ 14.6 to 29.3 µM)	8 to 16 (≈ 14.6 to 29.3 µM)	< 10	32 to 64 (≈ 58.6 to 117 µM)	< 1
CCN1CCN(C(=O)NC(C(=O)N[C@H]2Cc3cccc(C(=O)O)c3OB2O)c2ccc(P(=O)(O)O)cc2)C1=O (stereo partly drawn) [Example 42, (3R)-3-(2-(3-ethyl-2-oxoimidazolidine-1-carboxamido)-2-(4-phosphonophenyl)acetamido)-2-hydroxy-3,4-dihydro-2H-benzo[e][1,2]oxaborinine-8-carboxylic acid]	1 to 2 (≈ 1.78 to 3.57 µM)	< 1	32 to 64 (≈ 57.1 to 114 µM)	< 1	< 1	< 1	< 1	> 128	> 128	1 to 2 (≈ 1.78 to 3.57 µM)	2 to 4 (≈ 3.57 to 7.14 µM)	8 to 16 (≈ 14.3 to 28.6 µM)	8 to 16 (≈ 14.3 to 28.6 µM)	< 10	32 to 64 (≈ 57.1 to 114 µM)	< 1
CS(=O)(=O)N1CCC[C@H]1C(=O)N[C@H](C(=O)N[C@H]1Cc2cccc(C(=O)O)c2OB1O)c1ccc(P(=O)(O)O)cc1 [Example 43, (R)-2-hydroxy-3-((S)-2-((S)-1-(methylsulfonyl)pyrrolidine-2-carboxamido)-2-(4-phosphonophenyl)acetamido)-3,4-dihydro-2H-benzo[e][1,2]oxaborinine-8-carboxylic acid]	16 to 32 (≈ 26.9 to 53.8 µM)	1 to 2 (≈ 1.68 to 3.36 µM)	> 128	1 to 2 (≈ 1.68 to 3.36 µM)	1 to 2 (≈ 1.68 to 3.36 µM)	4 to 8 (≈ 6.72 to 13.4 µM)	8 to 16 (≈ 13.4 to 26.9 µM)	> 128	> 128	16 to 32 (≈ 26.9 to 53.8 µM)	32 to 64 (≈ 53.8 to 108 µM)	> 128	> 128	50 to 250	> 128	4 to 8 (≈ 6.72 to 13.4 µM)
CS(=O)(=O)N1CCC[C@H]1C(=O)N[C@@H](C(=O)N[C@H]1Cc2cccc(C(=O)O)c2OB1O)c1ccc(P(=O)(O)O)cc1 [Example 44, (R)-2-hydroxy-3-((R)-2-((S)-1-(methylsulfonyl)pyrrolidine-2-carboxamido)-2-(4-phosphonophenyl)acetamido)-3,4-dihydro-2H-benzo[e][1,2]oxaborinine-8-carboxylic acid]	16 to 32 (≈ 26.9 to 53.8 µM)	< 1	> 128	1 to 2 (≈ 1.68 to 3.36 µM)	< 1	1 to 2 (≈ 1.68 to 3.36 µM)	2 to 4 (≈ 3.36 to 6.72 µM)	> 128	> 128	16 to 32 (≈ 26.9 to 53.8 µM)	8 to 16 (≈ 13.4 to 26.9 µM)	32 to 64 (≈ 53.8 to 108 µM)	32 to 64 (≈ 53.8 to 108 µM)	10 to 50	> 128	1 to 2 (≈ 1.68 to 3.36 µM)
